The source of these data is patent US20110294836A1, “ARYL GPR119 AGONISTS AND USES THEREOF” (METABOLEX, INC., priority 2008, published 2011).

The target in the assay is T1, GPR119 (Homo sapiens, UniProt Q8TDV5).
T1 construct: expressed in transfected cells
T1 sequence (Q8TDV5 1-335): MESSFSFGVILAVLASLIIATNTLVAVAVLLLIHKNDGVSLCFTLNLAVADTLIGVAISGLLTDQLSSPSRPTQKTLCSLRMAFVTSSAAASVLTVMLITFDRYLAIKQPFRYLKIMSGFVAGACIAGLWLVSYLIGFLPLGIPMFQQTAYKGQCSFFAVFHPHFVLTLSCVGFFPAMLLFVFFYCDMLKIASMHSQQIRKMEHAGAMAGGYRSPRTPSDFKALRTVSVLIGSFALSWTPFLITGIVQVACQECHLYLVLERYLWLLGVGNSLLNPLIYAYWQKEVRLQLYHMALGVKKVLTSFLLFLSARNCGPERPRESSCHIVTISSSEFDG
Description: Stimulation of cAMP in CHO cell line stably expressing GPR119 (HTRF cAMP assay). It is filed as cell-based. To be noted: GPR119 stably expressing CHO cells, 30 minutes, relative to maximal activity (100%) of 5-Ethyl-2-{4-[4-(4-tetrazol-1-yl-phenoxymethyl)-thiazol-2-yl]-piperidin-1-yl}-pyrimidine. On the procedure:
This assay was developed using a stable cell line expressing GPR119, generated as follows. GPR119 (co-pending, co-owned patent application U.S. Ser. No. 11/964,461) was cloned into Gateway pDEST 40vector (Invitrogen), using the Gateway cloning system (invitrogen) according to the manufacturer's instructions. A stable cell line was generated by transfecting a 10 cm plate of CHO cells (source) with Bug of this construct using Transit-CHO transfection kit (Minis). CHO cells were plated the day prior to transfection at a density of 3,000,000 cells/plate. Clones were selected using the antibiotic G418 at 500 ug/ml. 23 clones were picked and assayed for the expression of the receptor by measuring changes in intracellular cAMP levels in response to a known GPR119 agonist.
To measure cAMP activity in response to GPR119 agonist, the clones were plated in 96 well plates at 17500 cells per well. On the day after plating, cells were incubated with the GPR119 agonist at 10 μM for 30 minutes in Ham's F12 Media (Gibco) with 0.04% DMSO. cAMP was measured using the cAMP dynamic kit from Cis Bio (Bedford, Mass.) according to the manufacturer's instructions. Briefly, cells were lysed, and cAMP levels determined by competitive immunoassay using D2 labeled cAMP, and europium cryptate tagged anti cAMP antibody. When in close proximity, the D2 and europium cryptate undergo fluorescence resonance energy transfer (FRET), which is measured as a fluorescence ratio (665 nm/620 nm). Unlabelled cAMP in the cell lysate competed with the D2 labeled cAMP for the europium crypate labeled antibody. The resulting decrease in FRET signal corresponded to intracellular cAMP levels. Fluorescence was read on a BMG Labtech PHERAstar, software version 1.50.
The clone with the greatest response to GPR119 agonist was selected for the screening assay.
Compounds were dissolved in 100% DMSO to a concentration of […] to provide stock solutions. To determine activity against GPR119, compounds were incubated with GPR119 stably expressing cells (described above), at 6-8 concentrations ranging from 0.00003 to 10 micromolar, in 96 well plates, in 50 ul of Ham's F12 media for 30 minutes. Cells were plated at 17500 cells per well 1 day before running the assay. All compounds were also screened against the parental CHO cells. cAMP was measured using the cAMP dynamic kit from Cis Bio (Bedford, Mass.), according to the manufacturer's instructions. Briefly, cells were lysed and cAMP levels determined by competitive immunoassay using D2 labeled cAMP, and europium cryptate tagged anti cAMP antibody. When in close proximity, the D2 and europium cryptate undergo fluorescence resonance energy transfer (FRET), which is measured as a fluorescence ratio (665 nm/620 nm). Unlabelled cAMP in the cell lysate competed with the D2 labeled cAMP for the europium crypate labeled antibody. The resulting decrease in FRET signal corresponded to intracellular cAMP levels.
To determine percent activity for a tested compound, the FRET signal value obtained at a particular concentration are compared to the Maximal FRET signal value obtained for 5-Ethyl-2-{4-[4-(4-tetrazol-1-yl-phenoxymethyl)-thiazol-2-yl]-piperidin-1-yl}-pyrimidine. The maximal activity of 5-Ethyl-2-{4-[4-(4-tetrazol-1-yl-phenoxymethyl)-thiazol-2-yl]-piperidin-1-yl}-pyrimidine is designated as 100% activity. Typically, the concentration of 5-Ethyl-2-{4-[4-(4-tetrazol-1-yl-phenoxymethyl)-thiazol-2-yl]-piperidin-1-yl}-pyrimidine in the assay was approximately 0.1 μM. The synthesis of 5-Ethyl-2-{4-[4-(4-tetrazol-1-yl-phenoxymethyl)-thiazol-2-yl]-piperidin-1-yl}-pyrimidine is disclosed in co-owned pending U.S. patent application Ser. No. 11/964,461, herein incorporated by reference. Activities of compounds in Table 1 below are expressed as % activity at 3 μM compound compared to the maximal activity of 5-Ethyl-2-{4-[4-(4-tetrazol-1-yl-phenoxymethyl)-thiazol-2-yl]-piperidin-1-yl}-pyrimidine at 3 μM.
On the technique in general: TR-FRET usually uses a lanthanide donor and a delayed reading to cut background.
With `CC(C)(C)OC(=O)N1CCC(c2nccc(COc3ccc(-n4cnnn4)cc3F)n2)CC1` [Example 7, tert-Butyl 4-(4-((2-fluoro-4-(1H-tetrazol-1-yl)phenoxy)methyl)pyrimidin-2-yl)piperidine-1-carboxylate], the “% Activity at 3 μM Compound” value is listed as 70%.

On to `CC(C)(C)OC(=O)N1CCC(c2cc(COc3ccc(-n4cnnn4)cc3F)ccn2)CC1` [Example 14, tert-Butyl 4-(4-((2-fluoro-4-(1H-tetrazol-1-yl)phenoxy)methyl)pyridin-2-yl)piperidine-1-carboxylate], for which the “% Activity at 3 μM Compound” value is 73%.

As for `CCc1cnc(N2CCC(c3cccc(OCc4ccc(S(C)(=O)=O)cc4)c3)CC2)nc1` [Example 10, 5-ethyl-2-(4-(3-(4-(methylsulfonyl)benzyloxy)phenyl)piperidin-1-yl)pyrimidine], the “% Activity at 3 μM Compound” value was determined as 59%.

Take `CC(C)(C)OC(=O)N1CCC(c2cccc(OCc3ccc(S(C)(=O)=O)cc3)c2)CC1` [Example 9, tert-Butyl 4-(3-(4-(methylsulfonyl)benzyloxy)phenyl)piperidine-1-carboxylate]: the “% Activity at 3 μM Compound” value is 61%.

As to `CC(C)(C)OC(=O)N1CCC(c2cccc(COc3ccc(-n4cnnn4)cc3F)n2)CC1` [Example 4, tert-Butyl 4-(6-((2-fluoro-4-(1H-tetrazol-1-yl)phenoxy)methyl)pyridin-2-yl)piperidine-1-carboxylate], the “% Activity at 3 μM Compound” value was 61%.

Take `CCc1cnc(N2CCC(c3cccc(COc4ccc(-n5cnnn5)cc4F)n3)CC2)nc1` [Example 5, 5-ethyl-2-(4-(6-((2-fluoro-4-(1H-tetrazol-1-yl)phenoxy)methyl)pyridin-2-yl)piperidin-1-yl)pyrimidine]: the “% Activity at 3 μM Compound” value is 73%.

For `CC(C)c1noc(C(=O)N2CCC(c3cccc(COc4ccc(S(C)(=O)=O)cc4F)n3)CC2)n1` [Example 13, (4-(6-((2-fluoro-4-(methylsulfonyl)phenoxy)methyl)pyridin-2-yl)piperidin-1-yl)(3-isopropyl-1,2,4-oxadiazol-5-yl)methanone], the “% Activity at 3 μM Compound” value is 33%.

For the compound `CC(C)(C)OC(=O)N1CCC(c2cccc(COc3ccc(S(C)(=O)=O)cc3F)n2)CC1` [Example 2, tert-Butyl 4-(6-((2-fluoro-4-(methylsulfonyl)phenoxy)methyl)pyridin-2-yl)piperidine-1-carboxylate], the “% Activity at 3 μM Compound” value was 59%.

As to `Fc1cc(-n2cnnn2)ccc1OCc1cccc(C2CCN(c3ncc(C(F)(F)F)cn3)CC2)n1` [Example 6, 2-(4-(6-((2-fluoro-4-(1H-tetrazol-1-yl)phenoxy)methyl)pyridin-2-yl)piperidin-1-yl)-5-(trifluoromethyl)pyrimidine], the “% Activity at 3 μM Compound” value was found to be 63%.
